Where two headings read alike, the source gives them in different places.
Molecular target: T1, human Cav3.2 channels (Homo sapiens, UniProt O95180)
T1 construct: expressed in transfected cells; host or cells: HEK293 cells (ATCC No. CRL-1573), plasmid pcDNA3.1(+)
Assay: Intracellular calcium concentration measurement (Fluo-4 AM) in stable cells expressing human Cav3.2 channels, buffer A / buffer B
Assay type: cell-based
From the text: Construction of Stable Cells Expressing Human Cav3.2 Channels
(1) A sequence produced by incorporating HindIII site and kozak sequence (GCCACC) into the 5′-terminal side of human Cav3.2 channel ORF (Open Reading Frame) gene and incorporating Kpnl site into the 3′-terminal side was incorporated into pcDNA3.1(+) (Thermo-Fisher Scientific, Inc., #V790-20), and the plasmid was transfected into HEK293 cells (ATCC No. CRL-1573) according to the protocol of FuGENE (registered trademark) HD Transfection Reagent (PROMEGA #E2311).
(2) Method for Measuring Intracellular Calcium Concentration
In the present measurement system, buffer A and buffer B having different potassium ion concentrations were used in order to evaluate the state-dependent Cav3.2 inhibitory action of a test compound.
Stable cell line expressing human Cav3.2 channels, which had been produced in (1), was seeded in a 96-well plate using DMEM medium including 10% FBS, and the cells were cultured for 48 hours under the conditions of 37° C. and 5% CO2. Subsequently, the medium was removed, and various wells that had been washed with a base buffer were treated with 80 μL of a fluorescent dye solution containing a mixed liquid of 22 μg of calcium fluorescence indicator Fluo-4 AM (Dojindo Laboratories Co., Ltd., #F311), 20 μL of DMSO, […] of 10% Pluronic F-127 (Thermo-Fisher Scientific, Inc., #P6866), and 4 mL of a base buffer. The cells were left to stand for 45 minutes at room temperature in the dark, and then the cells were washed with buffer A or buffer B. Solutions having various test compound concentrations and respectively containing buffer A or buffer B were added to the respective wells, the respective solutions containing DMSO at the same final concentration as that of the test compound as negative control, or containing the test compound dissolved in 100% DMSO at a final concentration of 0.1%. The cells were left to stand for another 15 minutes at room temperature in the dark, and the cells were analyzed using the following method using a microplate reader, EnVision (PerkinElmer, Inc.). First, the background fluorescence for each well was measured, subsequently an ionophore was added to the well, and the fluorescence of the baseline was measured. Subsequently, buffer A or buffer B containing added KCl at a concentration of 83.8 mM or 91.8 mM was added to each well, and an increase in fluorescence caused by a calcium influx generated by that stimulus was measured for 10 seconds. The percentage inhibition was calculated from the maximum fluorescence increment from the baseline, and the logarithmic value of the test compound concentration and the inhibitory activity were plotted to calculate the IC50 value. The analysis was carried out by measuring the fluorescence at 510 nm emitted when the cells were irradiated with exciting light at 485 nm.
Base buffer: 140 mM NaCl, 5 mM KCl, 1 mM MgCl2, 0.5 mM CaCl2, 10 mM Glucose, and 10 mM HEPES, pH 7.3
Buffer A: Equilibrium potential of potassium: −92 mV

[1] = Tables 2 to 6, buffer A, equilibrium potential of potassium −92 mV, read-out: Inhibitory action of buffer A (inactivated state)
[2] = Table 1, buffer A, equilibrium potential of potassium −92 mV, read-out: Inhibitory action of buffer A (inactivated state)
[3] = Table 1, buffer B, equilibrium potential of potassium −110 mV, read-out: Inhibitory action of buffer B (resting state or closed state)

T1 sequence (O95180 whole entry): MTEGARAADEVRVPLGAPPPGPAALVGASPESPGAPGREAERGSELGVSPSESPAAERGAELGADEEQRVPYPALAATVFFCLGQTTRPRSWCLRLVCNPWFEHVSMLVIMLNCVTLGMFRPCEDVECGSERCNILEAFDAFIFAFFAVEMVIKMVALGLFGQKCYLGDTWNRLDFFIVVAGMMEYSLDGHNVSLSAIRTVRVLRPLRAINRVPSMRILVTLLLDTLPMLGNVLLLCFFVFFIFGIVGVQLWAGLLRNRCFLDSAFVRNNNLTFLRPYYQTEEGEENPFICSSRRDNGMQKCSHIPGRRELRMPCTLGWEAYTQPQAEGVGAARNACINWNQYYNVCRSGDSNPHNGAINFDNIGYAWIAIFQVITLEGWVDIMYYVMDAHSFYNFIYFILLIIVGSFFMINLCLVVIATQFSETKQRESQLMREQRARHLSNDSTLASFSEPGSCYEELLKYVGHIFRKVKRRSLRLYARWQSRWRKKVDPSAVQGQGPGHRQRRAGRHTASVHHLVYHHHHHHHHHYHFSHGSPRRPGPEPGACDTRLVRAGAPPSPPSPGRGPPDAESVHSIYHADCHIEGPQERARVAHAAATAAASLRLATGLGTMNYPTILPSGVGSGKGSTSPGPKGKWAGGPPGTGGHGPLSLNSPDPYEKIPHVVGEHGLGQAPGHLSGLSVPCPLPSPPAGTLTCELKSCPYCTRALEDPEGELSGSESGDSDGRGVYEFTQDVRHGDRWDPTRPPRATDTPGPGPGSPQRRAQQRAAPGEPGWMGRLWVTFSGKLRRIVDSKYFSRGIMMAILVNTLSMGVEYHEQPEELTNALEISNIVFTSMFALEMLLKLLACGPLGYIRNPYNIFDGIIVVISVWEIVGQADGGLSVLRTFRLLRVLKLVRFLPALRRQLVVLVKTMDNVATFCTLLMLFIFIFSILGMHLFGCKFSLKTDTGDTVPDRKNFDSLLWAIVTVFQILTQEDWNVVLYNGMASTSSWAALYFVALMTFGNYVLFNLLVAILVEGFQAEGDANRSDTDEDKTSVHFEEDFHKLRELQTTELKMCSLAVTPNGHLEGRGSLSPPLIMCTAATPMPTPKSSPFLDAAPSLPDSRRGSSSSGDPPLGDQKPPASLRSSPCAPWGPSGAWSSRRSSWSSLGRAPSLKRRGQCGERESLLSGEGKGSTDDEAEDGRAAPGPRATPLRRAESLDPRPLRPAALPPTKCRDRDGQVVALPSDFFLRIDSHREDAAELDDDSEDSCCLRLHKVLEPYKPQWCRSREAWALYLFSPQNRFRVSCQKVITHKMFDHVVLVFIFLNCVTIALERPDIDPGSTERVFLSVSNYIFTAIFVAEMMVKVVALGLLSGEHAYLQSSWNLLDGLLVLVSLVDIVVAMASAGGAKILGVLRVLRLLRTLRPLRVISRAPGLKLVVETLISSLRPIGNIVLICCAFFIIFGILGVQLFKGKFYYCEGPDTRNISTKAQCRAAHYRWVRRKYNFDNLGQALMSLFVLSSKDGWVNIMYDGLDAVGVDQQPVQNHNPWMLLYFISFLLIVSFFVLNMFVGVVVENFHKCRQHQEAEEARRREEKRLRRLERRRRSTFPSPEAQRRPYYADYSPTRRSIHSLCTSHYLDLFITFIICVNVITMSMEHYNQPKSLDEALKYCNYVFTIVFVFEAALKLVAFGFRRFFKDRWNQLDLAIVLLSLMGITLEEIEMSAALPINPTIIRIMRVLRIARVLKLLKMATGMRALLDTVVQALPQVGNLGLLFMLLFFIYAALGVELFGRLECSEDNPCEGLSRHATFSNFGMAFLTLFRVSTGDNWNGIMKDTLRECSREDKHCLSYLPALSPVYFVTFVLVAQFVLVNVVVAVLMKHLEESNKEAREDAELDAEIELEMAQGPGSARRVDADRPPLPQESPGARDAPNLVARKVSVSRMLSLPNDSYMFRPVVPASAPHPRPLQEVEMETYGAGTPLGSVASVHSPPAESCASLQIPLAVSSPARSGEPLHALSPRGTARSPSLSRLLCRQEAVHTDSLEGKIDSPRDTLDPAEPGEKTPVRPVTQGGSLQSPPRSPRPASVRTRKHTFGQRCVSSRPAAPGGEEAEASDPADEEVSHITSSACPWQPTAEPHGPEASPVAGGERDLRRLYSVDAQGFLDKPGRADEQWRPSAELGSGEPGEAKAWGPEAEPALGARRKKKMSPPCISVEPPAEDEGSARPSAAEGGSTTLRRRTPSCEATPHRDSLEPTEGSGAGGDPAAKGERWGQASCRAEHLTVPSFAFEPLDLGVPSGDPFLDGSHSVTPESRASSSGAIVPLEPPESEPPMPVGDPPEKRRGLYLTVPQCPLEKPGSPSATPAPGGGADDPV

`C[C@@H](NC(=O)[C@H]1C[C@@H]1c1nc2cc(F)ccc2[nH]1)c1ccc(OCC(F)(F)F)s1` [Example 118, (1S,2S)-2-(5-fluoro-1H-benzo[d]imidazol-2-yl)-N—((R)-1-(5-(2,2,2-trifluoroethoxy)thiophen-2-yl)ethyl)cyclopropane-1-carboxamide] was tested, and the IC50 [1] was ≤ 0.1 µM.
For `C[C@@H](NC(=O)C1CC1c1nc2ccccc2[nH]1)c1ccc(C(=O)N2CCOCC2)s1` (stereo in doubt) [Example 56, Trans-2-(1H-benzo[d]imidazol-2-yl)-N—((R)-1-(5-(morpholine-4-carbonyl)thiophen-2-yl)ethyl)cyclopropane-1-carboxamide], the IC50 [1] was 1 to 10 µM.
With `C[C@@H](NC(=O)C1CC1c1ccccn1)c1ccc(OCC(F)(F)F)s1` (single isomer, unassigned) [Example 23B] the IC50 [1] was > 10 µM.
With `C[C@@H](NC(=O)C1CC1c1nc(-c2ccccc2)c[nH]1)c1ccc(OCC(F)(F)F)s1` (single isomer, unassigned) [Example 31B] the IC50 [1] was 0.1 to 1 µM.
In the case of `C[C@@H](NC(=O)C1CC1c1nc2cnccc2[nH]1)c1ccc(OCC(F)(F)F)s1` (mixture of isomers) [Example 28, Trans-2-(1H-imidazo[4,5-c]pyridin-2-yl)-N—((R)-1-(5-(2,2,2-trifluoroethoxy)thiophen-2-yl)ethyl)cyclopropane-1-carboxamide], the IC50 [1] is reported as > 10 µM.
In the case of `C[C@@H](NC(=O)C1CC1c1nc2cc(Cl)ccc2o1)c1cc2cc(F)ccc2o1` (single isomer, unassigned) [Example 108A], the IC50 [1] is reported as 0.1 to 1 µM.
`C[C@@H](NC(=O)C1CC1c1nc2cc(Cl)ccc2[nH]1)c1ccc(OCC(F)(F)F)s1` (single isomer, unassigned) [Example 53A] was tested, and the IC50 [1] was ≤ 0.1 µM.
In the case of `C[C@@H](NC(=O)C1CC1c1cc(F)cc(F)c1)c1ccc(OCC(F)(F)F)s1` (single isomer, unassigned) [Example 19B], the IC50 [1] is reported as > 10 µM.
`C[C@@H](NC(=O)C1CC1c1nc2cc(Cl)ccc2[nH]1)c1ccc(OCC(F)(F)F)s1` (single isomer, unassigned) [Example 53B] was tested, and the IC50 [1] was 0.1 to 1 µM.
`C[C@@H](NC(=O)[C@@H]1C[C@H]1c1nc2ccccc2[nH]1)c1ccc(C(=O)OC(C)(C)C)s1` [Example 25B, Trans-5-((1R)-1-(2-(1H-benzo[d]imidazol-2-yl)cyclopropane-1-carboxamido)ethyl)thiophene-2-carboxylic acid tert-butyl ester] gave an IC50 [1] of 1 to 10 µM.
`O=C(NC1(c2cc3cc(F)ccc3o2)CC1)[C@H]1C[C@@H]1c1nc2ccccc2[nH]1` [Example 128, (1S,2S)-2-(1H-benzo[d]imidazol-2-yl)-N-(1-(5-fluorobenzofuran-2-yl)cyclopropyl)cyclopropane-1-carboxamide] showed an IC50 [1] of 0.1 to 1 µM.
`C[C@@H](NC(=O)C1CC1c1nc2cc(Cl)ccc2o1)c1cc2cc(F)ccc2o1` (single isomer, unassigned) [Example 108B] gave an IC50 [1] of 0.1 to 1 µM.
In the case of `O=C(N[C@@H](c1ccc(C(F)(F)F)s1)C1CC1)[C@H]1C[C@@H]1c1nc2ccccc2[nH]1` [Example 69, (1S,2S)-2-(1H-benzo[d]imidazol-2-yl)-N—((R)-cyclopropyl(5-(trifluoromethyl)thiophen-2-yl)methyl)cyclopropane-1-carboxamide], the IC50 [1] is reported as 0.1 to 1 µM.
`Cc1ccc2nc(C3CC3C(=O)N[C@H](C)c3ccc(OCC(F)(F)F)s3)[nH]c2n1` (single isomer, unassigned) [Example 106A] showed an IC50 [1] of 1 to 10 µM.
`CC(C)[C@H](NC(=O)[C@H]1C[C@@H]1c1nc2ccccc2[nH]1)c1ccc(C(F)(F)F)s1` [Example 115, (1S,2S)-2-(1H-benzo[d]imidazol-2-yl)-N—((S)-2-methyl-1-(5-(trifluoromethyl)thiophen-2-yl)propyl)cyclopropane-1-carboxamide] showed an IC50 [1] of 0.1 to 1 µM.
With `C[C@@H](NC(=O)[C@H]1C[C@@H]1c1nc2ccccc2[nH]1)c1ccc(C2CC2)o1` [Example 74, (1S,2S)-2-(1H-benzo[d]imidazol-2-yl)-N—((R)-1-(5-cyclopropylfuran-2-yl)ethyl)cyclopropane-1-carboxamide] the IC50 [1] was 0.1 to 1 µM.
In the case of `C[C@@H](NC(=O)C1CC1c1cn(C)c2ccccc12)c1ccc(OCC(F)(F)F)s1` (single isomer, unassigned) [Example 29B], the IC50 [1] is reported as > 10 µM.
`Cc1cc([C@@H](C)NC(=O)C2CC2c2nc3ccccc3[nH]2)sc1OCC(F)(F)F` (single isomer, unassigned) [Example 1B] gave an IC50 [2] of 1 to 10 µM.
`C[C@@H](NC(=O)C1CC1c1nc2ccccc2[nH]1)c1cnc(OCC(F)(F)F)s1` (single isomer, unassigned) [Example 8B] was tested, and the IC50 [2] was > 10 µM.
`C[C@@H](NC(=O)C1CC1c1c[nH]c2ccccc12)c1cc2cc(F)ccc2o1` (single isomer, unassigned) [Example 98B] showed an IC50 [1] of 0.1 to 1 µM.
For `C[C@@H](NC(=O)[C@@H]1CCN(CC(=O)Nc2nccs2)C1)c1ccc(OCC(F)(F)F)s1` [Example 16, (R)-1-(2-oxoethyl-2-(thiazol-2-ylamino)ethyl)-N—((R)-1-(5-(2,2,2-trifluoroethoxy)thiophen-2-yl)ethyl)pyrrolidine-3-carboxamide], the IC50 [2] was 0.1 to 1 µM and the IC50 [3] was 1 to 10 µM.
Work on `C[C@@H](NC(=O)C1CC1c1ccc2cnn(C)c2c1)c1ccc(OCC(F)(F)F)s1` (single isomer, unassigned) [Example 22B] yielded an IC50 [1] of 0.1 to 1 µM.
`Cc1ccc2nc(C3CC3C(=O)N[C@H](C)c3ccc(OCC(F)(F)F)s3)[nH]c2n1` (single isomer, unassigned) [Example 106B] was tested, and the IC50 [1] was 1 to 10 µM.
In the case of `CC(NC(=O)[C@H]1C[C@@H]1c1nc2ccccc2[nH]1)c1cc2cnccc2o1` (stereo partly drawn) [Example 99, (1S,2S)-2-(1H-benzo[d]imidazol-2-yl)-N-(1-(furo[3,2-c]pyridin-2-yl)ethyl)cyclopropane-1-carboxamide], the IC50 [1] is reported as 1 to 10 µM.
With `C[C@H](NC(=O)C1CC1c1nc2ccccc2[nH]1)c1ccc(OCC(F)(F)F)s1` (single isomer, unassigned) [Example 2A] the IC50 [2] was 1 to 10 µM and the IC50 [3] was > 10 µM.
With `C[C@@H](NC(=O)C1CC1c1cc(F)cc(F)c1)c1ccc(OCC(F)(F)F)s1` (single isomer, unassigned) [Example 19A] the IC50 [1] was > 10 µM.
Work on `C[C@@H](NC(=O)C1CC1c1nc2ccccc2[nH]1)c1ccc(C(F)(F)F)s1` (single isomer, unassigned) [Example 5B] yielded an IC50 [2] of 1 to 10 µM and an IC50 [3] of 1 to 10 µM.
Work on `C[C@@H](NC(=O)[C@H]1C[C@@H]1c1nc2ccccc2[nH]1)c1ccc(C(=O)N2CCCC(F)C2)s1` (stereo partly drawn) [Example 95, (1S,2S)-2-(1H-benzo[d]imidazol-2-yl)-N-((1R)-1-(5-(3-fluoropiperidine-1-carbonyl)thiophen-2-yl)ethyl)cyclopropane-1-carboxamide] yielded an IC50 [1] of 1 to 10 µM.
For `C[C@@H](NC(=O)[C@H]1C[C@@H]1c1nc2ccccc2[nH]1)c1cc2ccc(F)cc2s1` [Example 119, (1S,2S)-2-(1H-benzo[d]imidazol-2-yl)-N—((R)-1-(6-fluorobenzo[b]thiophen-2-yl)ethyl)cyclopropane-1-carboxamide], the IC50 [1] was ≤ 0.1 µM.
Compound `C[C@@H](NC(=O)C1CC1c1nc2ccccc2[nH]1)c1ccc(Br)s1` (single isomer, unassigned) [Example 6A] has an IC50 [2] of 0.1 to 1 µM and an IC50 [3] of 1 to 10 µM.
With `C[C@@H](NC(=O)C1CC1c1nc2ccccc2[nH]1)c1ncc(Br)s1` (single isomer, unassigned) [Example 11A] the IC50 [2] was 1 to 10 µM and the IC50 [3] was > 10 µM.
For `O=C(N[C@@H](c1ccc(C(F)(F)F)s1)C1CCCCC1)[C@H]1C[C@@H]1c1nc2ccccc2[nH]1` [Example 59, (1S,2S)-2-(1H-benzo[d]imidazol-2-yl)-N—((R)-cyclohexyl(5-(trifluoromethyl)thiophen-2-yl)methyl)cyclopropane-1-carboxamide], the IC50 [1] was 0.1 to 1 µM.
For `C[C@@H](NC(=O)C1CC1c1ncc2ccccn12)c1cc2cc(F)ccc2o1` (single isomer, unassigned) [Example 117B], the IC50 [1] was 1 to 10 µM.
`C[C@@H](NC(=O)C1CC1c1c[nH]c2ccccc12)c1cc2cc(F)ccc2o1` (single isomer, unassigned) [Example 98A] gave an IC50 [1] of 0.1 to 1 µM.
